According to patent publication US5958973A, “Polyhydroxy benzoic acid derivatives and their use as neuraminidase inhibitors” (Gilead Sciences, Inc., priority 1995, dated 1999):
pIC50: −log10 of the molar value.

Target: neuraminidase
Type: biochemical
Details: in vitro enzyme inhibition; class symbols
Text: Compositions of the invention are screened for inhibitory activity against neuraminidase by any of the conventional techniques for evaluating enzyme activity. […] Useful in vitro screens have been described in detail and will not be elaborated here.

Compound: CCc1cc(C(=O)O)cc(NC(=N)N)c1NC(C)=O [Compound 213]
- pIC50: 4.00 to 4.12

Compound: N=C(N)Nc1cc(C(=O)O)ccc1NC(=O)C(F)(F)F [Compound 208]
- pIC50: 4.12 to 4.70
